Among the test systems are DMS 114 small cell lung; HOP-62 NSCLC; K-562 leukemia; KM20L2 colon; OVCAR-8 ovarian; SF-268 CNS; SN12C renal; SNB-78 CNS; HS 578T breast; T-47D breast.
Common to all, as to assay: NCI anticancer screen, dose series, 48 h

The structures appear in SMILES notation.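 A five-concentration, 48-hour dose response in 96-well plates underlies each endpoint, interpolated linearly between surrounding concentrations. GI50: concentration for 50% inhibition of growth. Definition used: TGI = concentration required for complete inhibition of growth.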

As for `CN(C)CCNC(=O)c1cccc2ncc(-c3ccccc3)nc12`, the TGI in the assay on DMS 114 small cell lung was 26.6 µM; with HOP-62 NSCLC, 34.7 µM; in the assay on K-562 leukemia, 61.9 µM; in the assay with KM20L2 colon, 38 µM; with OVCAR-8 ovarian it was greater than 93 µM; with SF-268 CNS, 29.4 µM. In addition, the TGI in the assay on SN12C renal came out at 42.2 µM; in the assay on SNB-78 CNS it was 40 µM.
`COCOCC[C@@H]1CC=CC(NC(=O)OCc2ccccc2)C1/C=C/C(=O)CCC1OCCO1` (stereo partly specified): the TGI in the assay on DMS 114 small cell lung is 86.5 µM; with HOP-62 NSCLC it was greater than 100 µM; with K-562 leukemia it was greater than 100 µM; with KM20L2 colon, greater than 93.3 µM; in the assay with OVCAR-8 ovarian, 39.3 µM; in the assay on SF-268 CNS, 99 µM. The TGI in the assay on SN12C renal was greater than 68.5 µM; in the assay with SNB-78 CNS, greater than 100 µM.
As for `Cc1ccc(NC(=O)CC/C(CC(=O)C(C)(C)C)=N\Nc2ccc([N+](=O)[O-])cc2[N+](=O)[O-])cc1C`, the TGI was greater than 100 µM with DMS 114 small cell lung; 61.9 µM in the assay with HOP-62 NSCLC; greater than 100 µM in the assay on K-562 leukemia; greater than 100 µM in the assay on KM20L2 colon; greater than 100 µM in the assay with OVCAR-8 ovarian; greater than 100 µM with SF-268 CNS. The same compound returned a TGI with SNB-78 CNS greater than 100 µM.
`C=C1C(=O)OC2C1C(OC(=O)/C(C)=C\C)CC1(CO1)C1C(O)C=C(C)C21O` (stereo unspecified): the TGI is 20.6 µM with DMS 114 small cell lung; 41.1 µM in the assay on HOP-62 NSCLC; greater than 100 µM in the assay with K-562 leukemia; 10.8 µM in the assay with KM20L2 colon; 6.03 µM in the assay with OVCAR-8 ovarian; 17.4 µM with SF-268 CNS. The TGI with SN12C renal came out at 14.5 µM; in the assay with SNB-78 CNS, 34.9 µM.
As for `NC(=Nc1nc(-c2ccccn2)cc2ccccc12)c1ccccn1`, the GI50 was 0.319 µM in the assay on HOP-62 NSCLC; 0.316 µM in the assay with HS 578T breast; 0.0199 µM in the assay with K-562 leukemia; 0.0505 µM with OVCAR-8 ovarian; 0.111 µM with SF-268 CNS; 0.131 µM with SN12C renal. In the assay on T-47D breast, the GI50 was 0.00636 µM. The TGI in the assay with HOP-62 NSCLC is 38.1 µM; in the assay with HS 578T breast, greater than 79.4 µM; with K-562 leukemia it was 5.3 µM; with KM20L2 colon, greater than 100 µM; with OVCAR-8 ovarian it was 15.5 µM; in the assay on SF-268 CNS it was 12.1 µM. The TGI in the assay with SN12C renal was 22.7 µM; in the assay with SNB-78 CNS it was greater than 100 µM.
Turning to `COc1cc(/C=C\c2ccc(OC(C)=O)cc2)cc(OC)c1OC`, the TGI in the assay with DMS 114 small cell lung, in the assay on HOP-62 NSCLC, in the assay on K-562 leukemia, in the assay with KM20L2 colon, in the assay with OVCAR-8 ovarian and with SF-268 CNS was greater than 100 µM each time. Moreover, the TGI was greater than 100 µM in the assay on SN12C renal and 84.1 µM with SNB-78 CNS.
For the compound `CC(=O)O/N=C(Cl)/C(Cl)=N/OC(C)=O`, the TGI with DMS 114 small cell lung, with HOP-62 NSCLC, with K-562 leukemia, in the assay with KM20L2 colon, in the assay on OVCAR-8 ovarian and in the assay on SF-268 CNS was greater than 100 µM in each case. In addition, the TGI with SN12C renal and in the assay on SNB-78 CNS was greater than 100 µM throughout.
Take `CN(C)CCC1(C2=CCCC2)CC/C(=C\c2ccccc2Cl)C1=O` (stereo unspecified): the TGI amounted to 29.5 µM in the assay on DMS 114 small cell lung; 14.5 µM with K-562 leukemia; 24.6 µM with KM20L2 colon; 29.3 µM in the assay with OVCAR-8 ovarian; 28.7 µM in the assay with SF-268 CNS; 26.7 µM in the assay on SN12C renal. The compound also gave a TGI with SNB-78 CNS of 29 µM.
Take `O=C(O)CCSC(=O)Nc1ccccc1Cl`: the TGI in the assay with DMS 114 small cell lung, in the assay with HOP-62 NSCLC, with K-562 leukemia, in the assay with KM20L2 colon, with OVCAR-8 ovarian and with SF-268 CNS was greater than 100 µM each time. The TGI with SN12C renal and in the assay with SNB-78 CNS was greater than 100 µM throughout.
Consider `OC1CCC[C@@H]1Sc1ccccc1` (stereo partly specified), for which the TGI in the assay on DMS 114 small cell lung, in the assay with HOP-62 NSCLC, in the assay on K-562 leukemia, in the assay on KM20L2 colon, in the assay with OVCAR-8 ovarian and in the assay with SF-268 CNS was greater than 100 µM each time. Further, the TGI with SN12C renal and with SNB-78 CNS was greater than 100 µM throughout.
Take `Cn1nc(-c2ccccc2)c(C(=O)/C=C/c2ccc(F)cc2)c(N2CCOCC2)c1=O`: the TGI is 33.4 µM in the assay with DMS 114 small cell lung; 53.2 µM with K-562 leukemia; 31.6 µM in the assay on KM20L2 colon; greater than 100 µM in the assay with OVCAR-8 ovarian; 38.2 µM with SF-268 CNS; greater than 100 µM in the assay with SN12C renal.
As for `C/C(CCn1[nH]c(=O)ccc1=O)=N\Nc1ccc([N+](=O)[O-])cc1[N+](=O)[O-]`, the TGI in the assay with DMS 114 small cell lung, in the assay with HOP-62 NSCLC, in the assay with K-562 leukemia, in the assay with KM20L2 colon, with OVCAR-8 ovarian and in the assay on SF-268 CNS was greater than 100 µM throughout. In addition, the TGI in the assay with SN12C renal and in the assay on SNB-78 CNS was greater than 100 µM throughout.
Turning to `COC(=O)C(C(=O)C(=O)Nc1ccc(OC)cc1[N+](=O)[O-])c1nc2cc(C)c(C)cc2[nH]c1=O` (stereo unspecified), the TGI in the assay on DMS 114 small cell lung, in the assay with HOP-62 NSCLC, in the assay with K-562 leukemia, in the assay with KM20L2 colon, in the assay on OVCAR-8 ovarian and in the assay on SF-268 CNS was greater than 100 µM each time. For the same compound, the TGI in the assay with SN12C renal and with SNB-78 CNS was greater than 100 µM throughout.
Regarding `C#CCN(N=O)C(=O)NCCCC(NC(C)=O)C(=O)NCc1ccccc1` (stereo unspecified), the TGI in the assay on DMS 114 small cell lung, in the assay on HOP-62 NSCLC, in the assay on K-562 leukemia, in the assay on KM20L2 colon, in the assay on OVCAR-8 ovarian and with SF-268 CNS was greater than 100 µM in each case. The TGI with SN12C renal and in the assay with SNB-78 CNS was greater than 100 µM each time.
Take `Cc1c(C2Cc3ccccc3N2)c2ccccc2n1C` (stereo unspecified): the TGI in the assay with DMS 114 small cell lung, with HOP-62 NSCLC, in the assay with K-562 leukemia, in the assay on KM20L2 colon, with OVCAR-8 ovarian and in the assay on SF-268 CNS was greater than 100 µM throughout. Further, the TGI in the assay with SN12C renal and with SNB-78 CNS was greater than 100 µM in each case.
For the compound `Cc1nc(Nc2ccccc2)sc1C(=O)CC(=O)C(=O)NC12CC3CC(CC(C3)C1)C2`, the TGI with DMS 114 small cell lung, in the assay with HOP-62 NSCLC, in the assay on K-562 leukemia, with KM20L2 colon, in the assay on OVCAR-8 ovarian and with SF-268 CNS was greater than 100 µM each time. For the same compound, the TGI in the assay with SN12C renal and in the assay with SNB-78 CNS was greater than 100 µM throughout.

The values above are taken from PubChem BioAssay (NCI).
